Laboratory results reported in article PMC8745710, “Biological Evaluation and Molecular Docking Studies of Novel 1,3,4-Oxadiazole Derivatives of 4,6-Dimethyl-2-sulfanylpyridine-3-carboxamide” (International Journal of Molecular Sciences, 2022).
Read-outs that look alike come from different tables or passages of the source.

How the values were obtained:
COX-1 = target: T1, COX-1 (Ovis aries, UniProt P05979); assay: COX colorimetric inhibitor screening assay, COX-1; assay type: biochemical; conditions: after 2 min of incubation, n = 5; for IC50: read-out: IC50 [µM] ± SD COX-1
T1 construct: purchased Cayman Chemical Company, Ann Arbor, MI, USA
T1 sequence (P05979 25-600): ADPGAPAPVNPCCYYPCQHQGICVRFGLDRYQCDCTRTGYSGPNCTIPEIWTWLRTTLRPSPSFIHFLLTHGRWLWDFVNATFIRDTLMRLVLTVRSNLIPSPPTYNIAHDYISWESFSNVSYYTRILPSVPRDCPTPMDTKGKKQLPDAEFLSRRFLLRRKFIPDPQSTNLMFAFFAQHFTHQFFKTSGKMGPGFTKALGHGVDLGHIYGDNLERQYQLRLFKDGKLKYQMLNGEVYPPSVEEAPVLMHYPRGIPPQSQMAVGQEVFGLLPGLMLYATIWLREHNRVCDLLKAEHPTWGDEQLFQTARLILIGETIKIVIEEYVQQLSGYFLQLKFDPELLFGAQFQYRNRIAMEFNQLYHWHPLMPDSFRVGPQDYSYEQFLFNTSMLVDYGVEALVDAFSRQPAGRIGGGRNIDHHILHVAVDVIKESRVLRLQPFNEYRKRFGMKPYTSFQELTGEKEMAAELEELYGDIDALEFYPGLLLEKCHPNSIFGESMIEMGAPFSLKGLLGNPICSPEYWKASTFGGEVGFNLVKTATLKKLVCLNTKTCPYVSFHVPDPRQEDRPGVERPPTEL
Description: The compounds were studied for their potencies to inhibit COX-1 and COX-2 enzymes by the colorimetric inhibitor screening assay.
A COX Colorimetric Inhibitor Screening Assay Kit, produced by Cayman Chemical Company, Ann Arbor, MI, USA, was used. It used the colorimetric monitoring of oxidized form of TMPD (N,N,N′,N′-tetramethyl-p-phenylenediamine) which was produced during reduction of prostaglandin G2 (PGG2) to PGH2. […] Reagents used it this assay were: COX-1 and COX-2 enzymes, Tris-HCl buffer, solutions of heme in DMSO and TMPD, arachidonic acid, KOH. To be sure that 100% enzymatic activity was achieved each sample was measured 3 times. The probes were measured after two minutes of incubation with tested compounds in the comparison to the initial activity of enzyme.

[1] = tested on: V79 (fibroblasts from Chinese hamster lung); assay: MTT assay, V79; assay type: cell-based; conditions: Cricetulus griseus, Fibroblast, 48 h incubation, read-out: IC50 [µM] ± SD V79
Description: (§1) The MTT (3-[4,5-dimethylthiazol-2-yl]-2,5-diphenyl tetrazolium bromide) assay was used to determine the cytotoxicity of tested compounds towards different cell lines: normal human dermal fibroblasts (NHDF), kidney epithelial cells (VERO), fibroblasts from Chinese hamster lung (V79) and four human cancer cells: A549 (pulmonary basal cell alveolar adenocarcinoma), MCF-7 (breast adenocarcinoma), LoVo (colon adenocarcinoma), and its drug resistant subline LoVo/Dx. The cell lines used in this study express COX-1 and COX-2. The LoVo line expressed COX-1, the LoVo/Dx subline express both COX-1 and COX-2 [61].
(§2) Each cell line was grown in the culture media recommended by supplier. Before the test they were detached with trypsin/EDTA solution, then to neutralize the effect of Trypsin/EDTA solution, FBS containing medium was used. After centrifugation the cells were stained with 0.4% solution of trypan blue, counted and inspected for viability using microscope. In the end, cells were inserted into 96-well culture plates and incubated in CO2 incubator (37 °C, 24 h). The number of cells was 2 × 10^3 cells per well. The tested compounds with different concentrations (5, 10, 20, 50, 100 µM) were dissolved in DMSO and then added to the cells (the final DMSO concentration was 0.1%). The cultures were incubated for another 48 h. After that time the cells were collected to be used in tests.
(§3) MTT assay was used to find out how tested compounds influence the metabolic activity of investigated cell lines. The cells were incubated with tested compounds. After removing of supernatant, 1 mg/mL of MTT solution in MEM was added to the plate (to each well) and then the plates were incubated at 37 °C for 2 h. The medium was removed again, and formazan crystals were dissolved in isopropanol. A Varioscan LUX microplate reader (Thermo Fisher Scientific, Waltham, MA, USA) was used to measure absorbance at 570 nm.

[2] = tested on: A549 (pulmonary basal cell alveolar adenocarcinoma); assay: MTT assay, A549; assay type: cell-based; conditions: Homo sapiens, 48 h incubation, read-out: IC50 [µM] ± SD A549
Description: as §1, §2, §3

[3] = tested on: MCF-7 (breast adenocarcinoma); assay: MTT assay, MCF-7; assay type: cell-based; conditions: Homo sapiens, MCF7, 48 h incubation, read-out: IC50 [µM] ± SD MCF-7
Description: as §1, §2, §3

V79 cell line = assay: Intracellular ROS level (DCFH-DA), V79 cells; assay type: cell-based, Chinese hamster; conditions: Cricetulus griseus, 4 h, V79, compound 100 μM
Description: Two cell lines were chosen for investigations: V79 (Chinese hamster lung fibroblasts) and LoVo. V79 normal cells are widely used as the cell line tested in the studies of the oxidative stress. These cells are a living system model to explain the mechanism of ROS effects caused by varied compounds [73].
First, the tested compounds (in concentration of 100 μM) were added to the cell cultures and cells were incubated for 4 h. Then cells were washed and incubated with DCFH-DA (non-fluorescent probe) in dark at 37 °C for 2 h at CO2 [79]. Non-fluorescent, non-polar DCFH-DA (2′7′-dichlorodihydrofluorescein diacetate) at concentration of 25 μM was used as a marker of oxidative stress to determine the intracellular ROS levels. […] In this time, DCFH-DA which penetrated into the cells, was hydrolyzed by esterases to polar, non-fluorescent DCFH (2′7′-dichlorodihydrofluorescein) and then oxidized in the presence of ROS (reactive oxygen species) to fluorescent DCF (2′7′-dichlorofluorescein). DCF was measured using Varioscan LUX microplate reader (Thermo Fisher Scientific, Waltham, MA, USA) at λex = 485 nm and λem = 535 nm. Then results were presented as E/E0 where E is test sample value and E0—control value.
[…] E is the culture with the tested compound and E0 is the negative control without the compound. The routine statistical methods: two-way analysis of variance ANOVA as well as Tukey’s post-hoc test were used. It allowed us to determine the statistical significance of results, where p < 0.05 was set as significant. The statistical indicators were estimated using Statistica 13.3 software.

[4] = with H2O2 (100 μM, 30 min), n = 5, read-out: ROS scavenging activity, Mean E/E0 ± SD, with H2O2
[5] = without H2O2, n = 5, read-out: ROS scavenging activity, Mean E/E0 ± SD, without H2O2

Row | Compound | IC50 (COX-1) [µM] | IC50 [2] [µM] | IC50 [3] [µM] | IC50 [1] [µM] | activity at 100 µM (V79 cell line; [4]) [%] | activity at 100 µM (V79 cell line; [5]) [%] | IC50 [µM] ± SD COX-1 (COX-1)
1 | Cc1ccc(C=NNC(=O)Cn2nc(CNC(=O)c3c(C)cc(C)nc3S)oc2=S)cc1 [Compound 7, 4,6-Dimethyl-N-{[4-(2-(2-(4-methylbenzylidene)hydrazinyl)-2-oxoethyl)-5-sulfanylidene-4,5-dihydro-1,3,4-oxadiazole-2-yl]methyl}-2-sulfanylpyridine-3-carboxamide] | 148 ± 19.8 | 3.72 ± 0.54 | 6.33 ± 0.56 | 47.7 ± 1.73 | 81 ± 23 | 103 ± 39 | 
2 | CSc1ccc(/C=N\NC(=O)Cn2nc(CNC(=O)c3c(C)cc(C)nc3S)oc2=S)cc1 [Compound 8, 4,6-Dimethyl-N-{[4-(2-(2-(4-methysulfanylbenzylidene)hydrazinyl)-2-oxoethyl)-5-sulfanylidene-4,5-dihydro-1,3,4-oxadiazole-2-yl]methyl}-2-sulfanylpyridine-3-carboxamide] | 157 ± 12.1 | 4.34 ± 0.56 | 9.41 ± 4.8 | 71.1 ± 2.4 | 72 ± 11 | 85 ± 29 | 
3 | Cc1cc(C)c(C(=O)NCc2nn(CC(=O)NN)c(=S)o2)c(S)n1 [Compound 4, N-{[4-(2-hydrazinyl-2-oxoethyl)-5-sulfanylidene-4,5-dihydro-1,3,4-oxadiazol-2-yl]methyl}-4,6-dimethyl-2-sulfanylpyridine-3-carboxamide] | 135 ± 5.99 | 3.84 ± 0.3 | 9.63 ± 1.66 | 71.7 ± 5.8 | 42 ± 8 | 53 ± 22 | 
4 | Cc1cc(C)c(C(=O)NCc2nn(CC(=O)NN=Cc3ccc(F)cc3)c(=S)o2)c(S)n1 [Compound 6, 4,6-Dimethyl-N-{[4-(2-(2-(4-fluorobenzylidene)hydrazinyl)-2-oxoethyl)-5-sulfanylidene-4,5-dihydro-1,3,4-oxadiazole-2-yl]methyl}-2-sulfanylpyridine-3-carboxamide] | 145 ± 20.9 | 4.05 ± 0.26 | 6.37 ± 0.19 | 80.7 ± 5.6 | 97 ± 11 | 82 ± 17 | 
5 | Cc1cc(C)c(C(=O)NCc2nn(CC(=O)NN=Cc3ccccc3)c(=S)o2)c(S)n1 [Compound 5, 4,6-Dimethyl-N-{[4-(2-(2-benzylidenehydrazinyl)-2-oxoethyl)-5-sulfanylidene-4,5-dihydro-1,3,4-oxadiazol-2-yl]methyl}-2-sulfanylpyridine-3-carboxamide] | 73.9 ± 3.03 | 3.62 ± 0.43 | 6.37 ± 1.09 | 84.3 ± 3.4 | 59 ± 21 | 82 ± 13 | 

Further lines, with some results ahead:

Row | IC50 (COX-1) [µM] | IC50 [2] [µM] | IC50 [3] [µM] | Compound | IC50 [1] [µM] | activity at 100 µM (V79 cell line; [4]) [%] | activity at 100 µM (V79 cell line; [5]) [%] | IC50 [µM] ± SD COX-1 (COX-1)
6 | 66.8 ± 5.19 | 3.88 ± 0.5 | 9.04 ± 2.84 | Cc1cc(C)c(C(=O)NCc2nn(CC(=O)NN=Cc3cccc(Cl)c3)c(=S)o2)c(S)n1 [Compound 12, 4,6-Dimethyl-N-{[4-(2-(2-(3-chlorobenzylidene)hydrazinyl)-2-oxoethyl)-5-sulfanylidene-4,5-dihydro-1,3,4-oxadiazole-2-yl]methyl}-2-sulfanylpyridine-3-carboxamide] | 52.8 ± 7.2 | 62 ± 25 | 68 ± 27 | 
7 | 154 ± 6.29 | 3.36 ± 0.2 | 8.22 ± 5.98 | Cc1cc(C)c(C(=O)NCc2nn(CC(=O)NN=Cc3ccc(C#N)cc3)c(=S)o2)c(S)n1 [Compound 9, 4,6-Dimethyl-N-{[4-(2-(2-(4-cyanobenzylidene)hydrazinyl)-2-oxoethyl)-5-sulfanylidene-4,5-dihydro-1,3,4-oxadiazole-2-yl]methyl}-2-sulfanylpyridine-3-carboxamide] | 77.7 ± 4.41 | 71 ± 12 | 78 ± 31 | 
8 | 84.4 ± 5.89 | 3.16 ± 0.21 | 7.23 ± 0.49 | Cc1cc(C)c(C(=O)NCc2nn(CC(=O)NN=Cc3ccccc3Br)c(=S)o2)c(S)n1 [Compound 13, 4,6-Dimethyl-N-{[4-(2-(2-(2-bromobenzylidene)hydrazinyl)-2-oxoethyl)-5-sulfanylidene-4,5-dihydro-1,3,4-oxadiazole-2-yl]methyl}-2-sulfanylpyridine-3-carboxamide] | 65.4 ± 4.04 | 50 ± 15 | 59 ± 8 | 
9 | 86.2 ± 2.6 | 3.72 ± 0.24 | 8.29 ± 4.45 | Cc1cc(C)c(C(=O)NCc2nn(CC(=O)NN=Cc3ccc(C(F)(F)F)cc3)c(=S)o2)c(S)n1 [Compound 11, 4,6-Dimethyl-N-{[4-(2-(2-(4-trifluoromethylbenzylidene)hydrazinyl)-2-oxoethyl)-5-sulfanylidene-4,5-dihydro-1,3,4-oxadiazole-2-yl]methyl}-2-sulfanylpyridine-3-carboxamide] | 55.2 ± 2.75 | 112 ± 20 | 67 ± 24 | 
10 |  | 3.52 ± 0.19 | 6.19 ± 0.19 | Cc1cc(C)c(C(=O)NCc2nn(CC(=O)NN=Cc3ccc(Cl)cc3)c(=S)o2)c(S)n1 [Compound 10, 4,6-Dimethyl-N-{[4-(2-(2-(4-chlorobenzylidene)hydrazinyl)-2-oxoethyl)-5-sulfanylidene-4,5-dihydro-1,3,4-oxadiazole-2-yl]methyl}-2-sulfanylpyridine-3-carboxamide] | 56.1 ± 5.42 | 82 ± 37 | 73 ± 27 | selectively inhibited the activity of COX-2
